Patent US8722903B2, “Indazole derivatives for the treatment of HSP9O-induced diseases” (Merck Patent GmbH, priority 2006, dated 2014)

Biological target: T1, Recombinant human HSP90α (Homo sapiens, UniProt P07900)
T1 construct: host or cells: E. coli
Experiment: Radioligand filter binding test: competitive inhibition of [3H]17AAG binding to HSP90
Settings: [3H]17AAG 0.08 μM, HSP90 1.5 μg/assay, 22° C., 30 min
Method: In the specific case, a radioligand filter binding test is used. The radioligand used here is tritium-labelled 17-allylaminogeldanamycin, [3H]17AAG, This filter binding test allows a targeted search for inhibitors which interfere with the ATP binding site.
Recombinant human HSP90α (E. coli expressed, 95% purity);
HEPES filter buffer (50 mM HEPES, pH 7.0, 5 mM MgCl2, BSA 0.01%) Multiscreen FB (1 μm) filter plate (Millipore, MAFBNOB 50).
The 96-well microtitre filter plates are firstly irrigated and coated with 0.1% of polyethylenimine.
The test is carried out under the following conditions:
Reaction temperature 22° C.
Reaction time: 30 min., shaking at 800 rpm
50 mM HEPES HCl, pH 7.0, 5 mM MgCl2, 0.01% (w/v) of BSA
At the end of the reaction, the supernatant in the filter plate is removed by suction with the aid of a vacuum manifold (Multiscreen Separation System, Millipore), and the filter is washed twice.
The filter plates are then measured in a beta counter (Microbeta, Wallac) with scintillator (Microscint 20, Packard).
“% of control” is determined from the “counts per minutes” values, and the IC-50 value of a compound is calculated therefrom.

IC50 [nM]	Compound
1000 to 10000	CCCN(C)C(=O)c1cc2c(Cc3ccccc3)n[nH]c2cc1O [Compound A4, 5-(N-propyl-N-methylaminocarbonyl)-3-benzyl-6-hydroxy-1H-indazole]
10 to 1000	CN(Cc1ccccc1)C(=O)c1cc2c(Cc3ccccc3)n[nH]c2cc1O [Compound A6, 5-(N-Benzyl-N-methylaminocarbonyl)-3-benzyl-6-hydroxy-1H-indazole]
1000 to 10000	COCCN(C)C(=O)c1cc2c(Cc3ccccc3)n[nH]c2cc1O [Compound A7, 5-[N-(2-Methoxyethyl)-N-methylaminocarbonyl]-3-benzyl-6-hydroxy-1H-indazole]
1000 to 10000	CN(Cc1cccc(Cl)c1)C(=O)c1cc2c(Cc3ccccc3)n[nH]c2cc1O [Compound A10, 5-[N-(3-Chlorobenzyl)-N-methylaminocarbonyl]-3-benzyl-6-hydroxy-1H-indazole]
1000 to 10000	COc1ccc(C)cc1CN(C)C(=O)c1cc2c(Cc3ccccc3)n[nH]c2cc1O [Compound A20, 5-[N-(2-Methoxy-5-methylbenzyl)-N-methylaminocarbonyl]-3-benzyl-6-hydroxy-1H-indazole]
10 to 1000	COc1cccc(CN(C)C(=O)c2cc3c(Cc4ccccc4)n[nH]c3cc2O)c1OC [Compound A23, 5-[N-(2,3-Dimethoxybenzyl)-N-methylaminocarbonyl]-3-benzyl-6-hydroxy-1H-indazole]
10 to 1000	CCCCN(C)C(=O)c1cc2c(Cc3cccc(C)c3)n[nH]c2cc1O [Compound A25, 5-(N-Butyl-N-methylaminocarbonyl)-3-(3-methylbenzyl)-6-hydroxy-1H-indazole]
1000 to 10000	CN(Cc1cccc(Br)c1)C(=O)c1cc2c(Cc3ccccc3)n[nH]c2cc1O [Compound A26, 5-[N-(3-Bromobenzyl)-N-methylaminocarbonyl]-3-benzyl-6-hydroxy-1H-indazole]
10 to 1000	CCc1ccc(CN(C)C(=O)c2cc3c(Cc4ccccc4)n[nH]c3cc2O)cc1 [Compound A28, 5-[N-(4-Ethylbenzyl)-N-methylaminocarbonyl]-3-benzyl-6-hydroxy-1H-indazole]
1000 to 10000	CN(Cc1cccc(C(F)(F)F)c1)C(=O)c1cc2c(Cc3ccccc3)n[nH]c2cc1O [Compound A29, 5-[N-(3-Trifluoromethylbenzyl)-N-methylaminocarbonyl]-3-benzyl-6-hydroxy-1H-indazole]
1000 to 10000	CN(Cc1cccc2c1OCO2)C(=O)c1cc2c(Cc3ccccc3)n[nH]c2cc1O [Compound A30, 5-[N-(Benzo-1,3-dioxol-4-ylmethyl)-N-methylaminocarbonyl]-3-benzyl-6-hydroxy-1H-indazole]
1000 to 10000	COc1ccc(Cl)cc1CN(C)C(=O)c1cc2c(Cc3ccccc3)n[nH]c2cc1O [Compound A31, 5-[N-(3-Chloro-6-methoxybenzyl)-N-methylaminocarbonyl]-3-benzyl-6-hydroxy-1H-indazole]
1000 to 10000	CN(Cc1ccccc1)C(=O)c1cc2c(Cc3ccccc3Cl)n[nH]c2cc1O [Compound A32, 5-(N-Benzyl-N-methylaminocarbonyl)-3-(2-chlorobenzyl)-6-hydroxy-1H-indazole]
1000 to 10000	CCCCN(C)C(=O)c1cc2c(Cc3ccccc3Cl)n[nH]c2cc1O [Compound A33, 5-(N-Butyl-N-methylaminocarbonyl)-3-(2-chlorobenzyl)-6-hydroxy-1H-indazole]
> 10000	COCCN(C)C(=O)c1cc2c(Cc3ccccc3Cl)n[nH]c2cc1O [Compound A34, 5-[N-(2-Methoxyethyl)-N-methylaminocarbonyl]-3-(2-chlorobenzyl)-6-hydroxy-1H-indazole]
1000 to 10000	CCCN(C)C(=O)c1cc2c(Cc3ccccc3Cl)n[nH]c2cc1O [Compound A35, 5-(N-Propyl-N-methylaminocarbonyl)-3-(2-chlorobenzyl)-6-hydroxy-1H-indazole]
1000 to 10000	COCCN(C)C(=O)c1cc2c(Cc3cccc(C)c3)n[nH]c2cc1O [Compound A37, 5-[N-(2-Methoxyethyl)-N-methylaminocarbonyl]-3-(3-methylbenzyl)-6-hydroxy-1H-indazole]
1000 to 10000	CCCN(C)C(=O)c1cc2c(Cc3cccc(C)c3)n[nH]c2cc1O [Compound A38, 5-(N-Propyl-N-methylaminocarbonyl)-3-(3-methylbenzyl)-6-hydroxy-1H-indazole]
10 to 1000	CCCCN(C)C(=O)c1cc2c(Cc3cccc(Cl)c3)n[nH]c2cc1O [Compound A39, 5-(N-Butyl-N-methylaminocarbonyl)-3-(3-chlorobenzyl)-6-hydroxy-1H-indazole]

IC50 [nM]	Compound
10 to 1000	CN(Cc1ccccc1)C(=O)c1cc2c(Cc3cccc(Cl)c3)n[nH]c2cc1O [Compound A40, 5-(N-Benzyl-N-methylaminocarbonyl)-3-(3-chlorobenzyl)-6-hydroxy-1H-indazole]
1000 to 10000	COCCN(C)C(=O)c1cc2c(Cc3cccc(Cl)c3)n[nH]c2cc1O [Compound A41, 5-[N-(2-Methoxyethyl)-N-methylaminocarbonyl]-3-(3-chlorobenzyl)-6-hydroxy-1H-indazole]
10 to 1000	CCCN(C)C(=O)c1cc2c(Cc3cccc(Cl)c3)n[nH]c2cc1O [Compound A42, 5-(N-Propyl-N-methylaminocarbonyl)-3-(3-chlorobenzyl)-6-hydroxy-1H-indazole]
1000 to 10000	CCCCN(C)C(=O)c1cc2c(Cc3ccccc3C)n[nH]c2cc1O [Compound A43, 5-(N-Butyl-N-methylaminocarbonyl)-3-(2-methylbenzyl)-6-hydroxy-1H-indazole]
1000 to 10000	Cc1ccccc1Cc1n[nH]c2cc(O)c(C(=O)N(C)Cc3ccccc3)cc12 [Compound A44, 5-(N-Benzyl-N-methylaminocarbonyl)-3-(2-methylbenzyl)-6-hydroxy-1H-indazole]
> 10000	COCCN(C)C(=O)c1cc2c(Cc3ccccc3C)n[nH]c2cc1O [Compound A45]
1000 to 10000	CCCN(C)C(=O)c1cc2c(Cc3cc(C)cc(F)c3)n[nH]c2cc1O [Compound A52, 5-(N-Propyl-N-methylaminocarbonyl)-3-(3-fluoro-5-methylbenzyl)-6-hydroxy-1H-indazole]
1000 to 10000	CCCCN(C)C(=O)c1cc2c(Cc3ccc(C)cc3)n[nH]c2cc1O [Compound A64, 5-(N-Butyl-N-methylaminocarbonyl)-3-(4-methylbenzyl)-6-hydroxy-1H-indazole]
1000 to 10000	CCc1ccc(Cc2n[nH]c3cc(O)c(C(=O)N(C)Cc4ccccc4)cc23)cc1 [Compound A71, 5-(N-Benzyl-N-methylaminocarbonyl)-3-(4-ethylbenzyl)-6-hydroxy-1H-indazole]
1000 to 10000	CCCN(C)C(=O)c1cc2c(Cc3ccc(C)c(C)c3)n[nH]c2cc1O [Compound A73, 5-(N-Propyl-N-methylaminocarbonyl)-3-(3,4-dimethylbenzyl)-6-hydroxy-1H-indazole]
10 to 1000	Cc1cccc(Cc2n[nH]c3cc(O)c(C(=O)N(C)Cc4ccc5c(c4)OCCO5)cc23)c1 [Compound A101, 5-[N-(2,3-Dihydrobenzo-1,4-dioxin-6-ylmethyl)-N-methylaminocarbonyl]-3-(3-methylbenzyl)-6-hydroxy-1H-indazole]
10 to 1000	Cc1ccc(Cc2n[nH]c3cc(O)c(C(=O)N(C)c4ccccc4)cc23)cc1 [Compound A122, 5-(N-Phenyl-N-methylaminocarbonyl)-3-(4-methylbenzyl)-6-hydroxy-1H-indazole]
10 to 1000	COc1ccc(N(C)C(=O)c2cc3c(Cc4cccc(C)c4)n[nH]c3cc2O)cc1OC [Compound A145, 5-[N-(3,4-Dimethoxyphenyl)-N-methylaminocarbonyl]-3-(3-methylbenzyl)-6-hydroxy-1H-indazole]
10 to 1000	Cc1cccc(Cc2n[nH]c3cc(O)c(C(=O)N(C)c4cccc(OC(F)(F)F)c4)cc23)c1 [Compound A154, 5-[N-(3-Trifluoromethoxyphenyl)-N-methylaminocarbonyl]-3-(3-methylbenzyl)-6-hydroxy-1H-indazole]
10 to 1000	CC(=O)N1CCc2cc(N(C)C(=O)c3cc4c(Cc5cccc(C)c5)n[nH]c4cc3O)ccc21 [Compound A157, 5-[N-(1-Acetyl-2,3-dihydro-1H-indol-5-yl)-N-methylaminocarbonyl]-3-(3-methylbenzyl)-6-hydroxy-1H-indazole]
10 to 1000	COc1ccc(N(C)C(=O)c2cc3c(Cc4cccc(OC)c4)n[nH]c3cc2O)cc1 [Compound A160, 5-[N-(4-Methoxyphenyl)-N-methylaminocarbonyl]-3-(3-methoxybenzyl)-6-hydroxy-1H-indazole]
10 to 1000	COc1cccc(Cc2n[nH]c3cc(O)c(C(=O)N(C)c4ccc(CNS(C)(=O)=O)cc4)cc23)c1 [Compound A162, 5-[N-(4-Methylsulfonylaminomethylphenyl)-N-methylaminocarbonyl]-3-(3-methoxybenzyl)-6-hydroxy-1H-indazole]
10 to 1000	CCCc1n[nH]c2cc(O)c(C(=O)N(C)c3ccc(OC)c(OC)c3)cc12 [Compound A174, 5-[N-(3,4-Dimethoxyphenyl)-N-methylaminocarbonyl]-3-propyl-6-hydroxy-1H-indazole]
10 to 1000	CCCc1n[nH]c2cc(O)c(C(=O)N(C)c3ccc4c(c3)OCO4)cc12 [Compound A175, 5-[N-(Benzo-1,3-dioxol-5-yl)-N-methylaminocarbonyl]-3-propyl-6-hydroxy-1H-indazole]

Compound	IC50 [nM]
5-[N-(3-Methoxybenzyl)-N-methylaminocarbonyl]-3-benzyl-6-hydroxy-1H-indazole [Compound A27]	10 to 1000
